Three compounds from ChEMBL document CHEMBL2073896, “Bromocriptine transcriptionally activates the multidrug resistance gene (pgp2/mdr1b) by a novel pathway” (J Biol Chem, 1997) can be followed below.

Each structure is given as a SMILES string.

What all share (type): functional, cell-based
Data set [1] deals with ATP-dependent translocase ABCB1 (Rattus norvegicus, UniProt P43245). Nature of the data set: TP_TRANSPORTER: Luciferase assay in H35 hepatoma cells.
The target in data set [2] is Multidrug resistance protein 1a (Rattus norvegicus) (UniProt Q6PSM0). Nature of the data set: TP_TRANSPORTER: Western blot, H35 hepatoma cells. In general terms: A western blot detects proteins with antibodies after separation by electrophoresis.
For data set [3] the target is unchanged. Briefly: TP_TRANSPORTER: Northern blot from H35 hepatoma cells.

Chain of Multidrug resistance protein 1a (Rattus norvegicus) (Q6PSM0 as listed by the source): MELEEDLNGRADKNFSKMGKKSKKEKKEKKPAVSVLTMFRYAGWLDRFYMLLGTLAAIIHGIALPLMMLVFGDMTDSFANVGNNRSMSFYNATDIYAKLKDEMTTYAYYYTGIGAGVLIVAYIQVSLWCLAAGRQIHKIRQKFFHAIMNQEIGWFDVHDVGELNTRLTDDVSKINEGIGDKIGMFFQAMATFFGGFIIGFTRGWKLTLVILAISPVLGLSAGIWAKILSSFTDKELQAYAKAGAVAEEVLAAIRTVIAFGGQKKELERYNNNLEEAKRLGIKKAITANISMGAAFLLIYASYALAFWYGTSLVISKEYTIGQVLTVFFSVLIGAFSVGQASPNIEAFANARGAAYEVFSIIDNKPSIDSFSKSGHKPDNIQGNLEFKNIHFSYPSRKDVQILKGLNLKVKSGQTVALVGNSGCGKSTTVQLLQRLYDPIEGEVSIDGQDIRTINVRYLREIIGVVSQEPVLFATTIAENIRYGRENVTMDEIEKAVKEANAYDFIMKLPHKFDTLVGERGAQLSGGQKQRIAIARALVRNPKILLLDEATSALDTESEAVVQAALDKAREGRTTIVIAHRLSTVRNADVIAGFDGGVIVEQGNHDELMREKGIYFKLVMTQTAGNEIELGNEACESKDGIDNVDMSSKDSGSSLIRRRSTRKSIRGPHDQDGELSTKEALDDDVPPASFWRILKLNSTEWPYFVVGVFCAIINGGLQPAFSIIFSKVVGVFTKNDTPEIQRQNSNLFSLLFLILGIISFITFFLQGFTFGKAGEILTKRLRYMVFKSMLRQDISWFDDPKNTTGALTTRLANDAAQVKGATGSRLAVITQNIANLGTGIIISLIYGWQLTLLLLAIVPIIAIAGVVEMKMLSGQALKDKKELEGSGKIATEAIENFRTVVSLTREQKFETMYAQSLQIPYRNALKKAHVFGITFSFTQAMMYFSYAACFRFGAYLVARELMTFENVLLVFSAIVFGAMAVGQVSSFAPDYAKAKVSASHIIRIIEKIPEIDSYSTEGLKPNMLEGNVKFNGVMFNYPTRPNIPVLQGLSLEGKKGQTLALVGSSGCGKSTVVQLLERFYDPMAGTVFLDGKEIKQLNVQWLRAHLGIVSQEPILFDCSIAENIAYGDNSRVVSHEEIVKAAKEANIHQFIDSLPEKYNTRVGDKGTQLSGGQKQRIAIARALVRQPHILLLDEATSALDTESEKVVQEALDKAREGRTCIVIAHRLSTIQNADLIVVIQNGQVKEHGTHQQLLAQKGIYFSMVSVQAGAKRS
Chain of ATP-dependent translocase ABCB1 (P43245 whole entry): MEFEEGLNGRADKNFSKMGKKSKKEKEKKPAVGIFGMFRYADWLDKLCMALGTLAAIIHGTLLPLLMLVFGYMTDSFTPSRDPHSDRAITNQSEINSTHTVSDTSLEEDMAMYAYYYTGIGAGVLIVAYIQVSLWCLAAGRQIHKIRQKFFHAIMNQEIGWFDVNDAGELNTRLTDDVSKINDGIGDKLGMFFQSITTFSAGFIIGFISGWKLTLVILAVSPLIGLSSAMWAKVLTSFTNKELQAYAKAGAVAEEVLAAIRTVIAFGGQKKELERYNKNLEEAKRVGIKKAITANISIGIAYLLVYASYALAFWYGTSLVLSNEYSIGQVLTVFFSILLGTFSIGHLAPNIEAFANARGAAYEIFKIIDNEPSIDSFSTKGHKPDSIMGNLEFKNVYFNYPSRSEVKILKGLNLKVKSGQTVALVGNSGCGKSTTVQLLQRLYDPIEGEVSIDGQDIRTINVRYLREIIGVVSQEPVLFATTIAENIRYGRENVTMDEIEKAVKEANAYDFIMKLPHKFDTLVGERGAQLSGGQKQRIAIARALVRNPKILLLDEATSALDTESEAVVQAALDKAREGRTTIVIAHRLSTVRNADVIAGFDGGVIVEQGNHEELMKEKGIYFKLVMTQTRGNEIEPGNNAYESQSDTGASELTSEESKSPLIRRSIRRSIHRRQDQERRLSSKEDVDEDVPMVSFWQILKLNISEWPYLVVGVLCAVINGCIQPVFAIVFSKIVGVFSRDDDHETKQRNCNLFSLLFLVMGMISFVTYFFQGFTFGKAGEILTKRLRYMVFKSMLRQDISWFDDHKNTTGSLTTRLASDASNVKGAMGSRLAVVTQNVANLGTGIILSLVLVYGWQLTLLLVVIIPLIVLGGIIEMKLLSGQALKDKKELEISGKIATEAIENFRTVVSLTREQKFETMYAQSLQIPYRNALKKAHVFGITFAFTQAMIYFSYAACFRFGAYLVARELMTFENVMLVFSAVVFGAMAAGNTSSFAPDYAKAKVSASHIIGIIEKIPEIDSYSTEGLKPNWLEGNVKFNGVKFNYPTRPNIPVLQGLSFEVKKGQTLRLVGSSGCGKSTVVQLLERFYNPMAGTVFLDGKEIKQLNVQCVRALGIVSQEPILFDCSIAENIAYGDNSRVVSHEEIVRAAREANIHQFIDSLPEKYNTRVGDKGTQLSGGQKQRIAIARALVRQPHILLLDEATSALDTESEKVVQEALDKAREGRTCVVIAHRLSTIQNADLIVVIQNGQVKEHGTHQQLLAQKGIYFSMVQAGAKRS

On to `CCCN1CCC[C@@H]2Cc3n[nH]cc3C[C@H]21` [QUINPIROLE], for which, in data set [1], the Activity entry is “inducer [+]”.

Regarding `CC(C)C[C@H]1C(=O)N2CCC[C@H]2[C@]2(O)O[C@](NC(=O)[C@@H]3C=C4c5cccc6[nH]c(Br)c(c56)C[C@H]4N(C)C3)(C(C)C)C(=O)N12`, the Activity entry in data set [2] and in data set [3] was “inducer [+]” in each case.

As for `CCCN1CCc2cccc3c2[C@H]1Cc1ccc(O)c(O)c1-3.Cl`, the Activity entry in data set [1] was “inducer [+]”.
